Laboratory results reported in patent US9193722B2, “Tri-cyclic pyrazolopyridine kinase inhibitors” (Vertex Pharmaceuticals Incorporated, priority 2008, dated 2015).
pKi: −log10 of the molar value.

Experiments:
Type in all cases: biochemical
PKC theta kinase = PKC theta kinase (Homo sapiens, UniProt Q04759); assay: PKC theta kinase inhibition, coupled-enzyme (NADH absorbance) assay, Ki; settings: 240 μM ATP, 18 nM PKC theta kinase, 30° C.
Experimental: An assay buffer solution was prepared which consisted of 100 mM HEPES (pH 7.5), 10 mM MgCl2, 25 mM NaCl, 0.1 mM EDTA and 0.01% Brij. […] To 60 μL of this enzyme buffer, in a 384 well plate, was added 2 μL of VRT stock solution in DMSO. The mixture was allowed to equilibrate for 10 mins at 30° C. […] Ki values were calculated from initial rate data by non-linear regression using the Prism software package (Prism 4.0a, Graphpad Software, San Diego, Calif.).

PKC delta kinase = PKC delta kinase (Homo sapiens, UniProt Q05655); assay: PKC delta kinase inhibition, coupled-enzyme (NADH absorbance) assay, Ki; settings: 150 μM ATP, 46 nM PKC delta kinase, 30° C.; read-out: Ki PKC delta
PKC delta kinase, sequence (Q05655 whole entry): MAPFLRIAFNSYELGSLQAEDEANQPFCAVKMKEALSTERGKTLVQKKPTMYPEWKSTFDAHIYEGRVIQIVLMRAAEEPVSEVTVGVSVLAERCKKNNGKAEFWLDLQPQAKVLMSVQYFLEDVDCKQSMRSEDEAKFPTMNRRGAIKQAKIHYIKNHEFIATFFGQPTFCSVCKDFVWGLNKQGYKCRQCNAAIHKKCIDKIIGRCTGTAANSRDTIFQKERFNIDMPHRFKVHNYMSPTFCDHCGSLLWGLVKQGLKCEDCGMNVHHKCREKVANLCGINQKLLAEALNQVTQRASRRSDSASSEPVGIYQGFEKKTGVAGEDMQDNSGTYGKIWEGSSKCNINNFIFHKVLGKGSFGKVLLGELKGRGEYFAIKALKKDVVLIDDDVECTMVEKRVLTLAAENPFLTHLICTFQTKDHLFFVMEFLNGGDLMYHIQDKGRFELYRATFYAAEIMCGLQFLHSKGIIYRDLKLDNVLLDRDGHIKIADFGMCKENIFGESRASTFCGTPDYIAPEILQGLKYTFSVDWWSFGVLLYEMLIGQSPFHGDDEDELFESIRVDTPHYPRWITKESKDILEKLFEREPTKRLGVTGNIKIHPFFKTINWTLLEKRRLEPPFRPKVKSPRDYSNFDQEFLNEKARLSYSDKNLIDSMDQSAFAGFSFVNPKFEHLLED
Experimental: (§1) An assay buffer solution was prepared which consisted of 100 mM HEPES (pH 7.5), 10 mM MgCl2, 25 mM NaCl, 0.1 mM EDTA and 0.01% Brij. […] To 16 μL of this enzyme buffer, in a 384 well plate, was added 1 μL of VRT stock solution in DMSO. The mixture was allowed to equilibrate for 10 mins at 30° C. The enzyme reaction was initiated by the addition of 16 μL stock ATP solution prepared in assay buffer to a final assay concentration of 150 μM. Initial rate data was determined from the rate of change of absorbance at 340 nm (corresponding to stoichiometric consumption of NADH) using a Molecular Devices Spectramax plate reader (Sunnyvale, Calif.) over 15 mins at 30° C. […] Ki values were calculated from initial rate data by non-linear regression using the Prism software package (Prism 4.0a, Graphpad Software, San Diego, Calif.).

PKC alpha kinase = PKC alpha kinase (Homo sapiens, UniProt P17252); assay: PKC alpha kinase inhibition, coupled-enzyme (NADH absorbance) assay, Ki; settings: 130 μM ATP, 4.5 nM PKC alpha kinase, 30° C.
Experimental: as §1, with “EDTA, 100 μM CaCl2” for “EDTA”, “130” for “150”

PKC theta kinase, sequence (Q04759 whole entry): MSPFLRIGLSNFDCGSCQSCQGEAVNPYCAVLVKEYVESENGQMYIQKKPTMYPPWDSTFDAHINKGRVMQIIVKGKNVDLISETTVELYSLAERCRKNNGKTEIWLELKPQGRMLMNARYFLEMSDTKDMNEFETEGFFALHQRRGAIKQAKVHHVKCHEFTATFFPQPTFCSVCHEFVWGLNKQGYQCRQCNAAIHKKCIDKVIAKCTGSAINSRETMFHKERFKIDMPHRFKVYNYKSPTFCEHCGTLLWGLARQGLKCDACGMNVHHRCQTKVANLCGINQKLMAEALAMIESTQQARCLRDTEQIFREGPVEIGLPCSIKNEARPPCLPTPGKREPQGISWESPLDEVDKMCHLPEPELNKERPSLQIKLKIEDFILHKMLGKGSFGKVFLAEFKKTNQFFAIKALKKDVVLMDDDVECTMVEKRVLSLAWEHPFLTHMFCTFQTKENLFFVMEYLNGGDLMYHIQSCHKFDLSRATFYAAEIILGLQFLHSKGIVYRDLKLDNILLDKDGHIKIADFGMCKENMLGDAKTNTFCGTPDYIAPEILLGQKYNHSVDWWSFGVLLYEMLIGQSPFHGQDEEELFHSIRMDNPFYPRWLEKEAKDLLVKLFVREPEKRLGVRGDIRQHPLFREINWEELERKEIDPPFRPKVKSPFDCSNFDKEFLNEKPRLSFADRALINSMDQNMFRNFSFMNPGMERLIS

SMILES | pKi (PKC theta kinase) | pKi (PKC delta kinase) | pKi (PKC alpha kinase)
CC(C)(C)C(N)C1CCCN(c2ccc(F)c(-c3n[nH]c4ncccc34)n2)C1 (stereo not drawn) [Compound 330] | > 9.00 | > 8.00 | > 6.30
CC1CN(c2ccc(F)c(-c3n[nH]c4ncccc34)n2)CC(C2(O)CCC2)N1 (stereo not drawn) [Compound 256] | > 6.30 | < 5.90 | < 5.90
CC1(C)CN(c2cccc(-c3n[nH]c4ncccc34)n2)CCN1 [Compound 79] | > 7.30 | > 6.30 | < 5.90
NC(=O)C1CCCN(c2ccc(F)c(-c3n[nH]c4ncccc34)n2)C1 (stereo not drawn) [Compound 302] | < 6.15 | < 5.90 | < 5.90
CCC(C)(O)C1CN(c2ccc(F)c(-c3n[nH]c4ncccc34)n2)CCN1 (stereo not drawn) [Compound 242] | > 7.30 | > 6.30 | < 5.90
CC(C)(C(N)C1CCCN(c2ccc(F)c(-c3n[nH]c4ncccc34)n2)C1)C(F)(F)F (stereo not drawn) [Compound 390] | > 7.30 | < 5.90 | < 5.90
NC[C@@H]1CCN(c2cc(C(F)(F)F)cc(-c3n[nH]c4ncccc34)n2)C1 [Compound 420] | > 5.55 | < 5.90 | < 5.90
Cc1cc(N2CCN[C@@H](CC(C)C)C2)nc(-c2n[nH]c3ncccc23)c1Cl [Compound 58] | > 6.30 | > 5.55 | < 5.90
CC(C)C(F)(F)C1CN(c2ccc(F)c(-c3n[nH]c4ncccc34)n2)CCN1 (stereo not drawn) [Compound 167] | > 6.30 | < 5.90 | < 5.90
FC(F)(F)c1ccc(N2CCN[C@@H](Cc3ccccc3)C2)nc1-c1n[nH]c2ncccc12 [Compound 121] | > 6.30 | < 5.90 | < 5.90
c1cc(-c2n[nH]c3ncccc23)nc(C2CCNCC2)c1 [Compound 159] | > 6.30 | > 6.30 | > 5.55
NC1CCN(c2ccc(Cl)c(-c3n[nH]c4ncccc34)n2)CC1 [Compound 110] | > 6.30 | > 5.55 | < 5.90
COC(C)(C)CC1CN(c2cccc(-c3n[nH]c4ncccc34)n2)CCN1 (stereo not drawn) [Compound 101] | > 7.30 | < 5.90 | < 5.90
NC1CCN(c2cc(C(F)(F)F)cc(-c3n[nH]c4ncccc34)n2)CC1 [Compound 108] | > 6.30 | > 5.55 | < 5.90
CC(F)(F)CC1CN(c2cccc(-c3n[nH]c4ncccc34)n2)CCN1 (stereo not drawn) [Compound 54] | > 7.30 | > 6.30 | > 5.55
CC(=O)N1CCN(c2cccc(-c3n[nH]c4ncccc34)n2)CC1 [Compound 20] | < 6.15 | < 5.70 | < 5.90
CC(C)(F)C(C)(O)C1CN(c2ccc(F)c(-c3n[nH]c4ncccc34)n2)CCN1 (stereo not drawn) [Compound 249] | > 7.30 | < 5.90 | < 5.90
OC1(C2CN(c3ccc(F)c(-c4n[nH]c5ncccc45)n3)CCN2)CCC1 (stereo not drawn) [Compound 240] | > 7.30 | > 6.30 | < 5.90
NC1CCN(c2ccc(F)c(-c3n[nH]c4ncccc34)n2)CC1 [Compound 368] | > 6.30 | < 5.90 | < 5.90
c1ccc(-c2ccc(N3CCNCC3)nc2-c2n[nH]c3ncccc23)cc1 [Compound 50] | < 6.15 | < 5.70 | < 5.90
OC1(C2CN(c3cccc(-c4n[nH]c5ncccc45)n3)CCN2)CC1 (stereo not drawn) [Compound 186] | > 7.30 | > 7.30 | > 5.55
NC1CCCN(c2ccc(F)c(-c3n[nH]c4ncccc34)n2)C1 (stereo not drawn) [Compound 294] | > 6.30 | < 5.90 | < 5.90
CC(C)CC1(CN)CN(c2ccc(F)c(-c3n[nH]c4ncccc34)n2)C1 [Compound 457] | < 6.15 | < 5.90 | < 5.90
CCCC1CN(c2cccc(-c3n[nH]c4ncccc34)n2)CCN1 (stereo not drawn) [Compound 59] | > 7.30 | > 6.30 | > 5.55
CCC[C@H]1CN(c2ccc(F)c(-c3n[nH]c4ncccc34)n2)C[C@H]1N [Compound 338] | > 6.30 | < 5.90 | < 5.90
CC(C)CC1(O)CCCN(c2ccc(F)c(-c3n[nH]c4ncccc34)n2)C1 (stereo not drawn) [Compound 295] | > 5.55 | < 5.90 | < 5.90
CC(C)C(C)(N)C1CCCN(c2ccc(F)c(-c3n[nH]c4ncccc34)n2)C1 (stereo not drawn) [Compound 292] | > 6.30 | > 5.55 | < 5.90

Next, values leading:

pKi (PKC theta kinase) | pKi (PKC delta kinase) | pKi (PKC alpha kinase) | SMILES
> 6.30 | < 5.90 | < 5.90 | CC(C)CC1CN(c2ccc(C(F)(F)F)c(-c3n[nH]c4ncccc34)n2)CCC1CC#N (stereo not drawn) [Compound 450]
> 6.30 | < 5.90 | < 5.90 | CC(C)CC1(CN)CCN(c2ccc(C(F)(F)F)c(-c3n[nH]c4ncccc34)n2)CC1 [Compound 466]
> 6.30 | < 5.90 | < 5.90 | CC(C)C[C@@H]1C[C@@H](N)CN(c2ccc(C(F)(F)F)c(-c3n[nH]c4ncccc34)n2)C1 [Compound 365]
> 7.30 | < 5.90 | < 5.90 | CC(C)(F)CC1CN(c2ccc(C(F)(F)F)c(-c3n[nH]c4ncccc34)n2)CCN1 (stereo not drawn) [Compound 102]
> 6.30 | > 5.55 | < 5.90 | C[C@H]1CN(c2ccc(C(F)(F)F)c(-c3n[nH]c4ncccc34)n2)CCN1 [Compound 116]
> 7.30 | > 6.30 | < 5.90 | CCC1(CC)CN(c2ccc(C(F)(F)F)c(-c3n[nH]c4ncccc34)n2)CCC1N (stereo not drawn) [Compound 427]
< 6.15 | < 5.90 | < 5.90 | CC(C)(N)C1CCN(c2ccc(C(F)(F)F)c(-c3n[nH]c4ncccc34)n2)C1 (stereo not drawn) [Compound 361]
< 6.15 | < 5.90 | < 5.90 | CN(C)C(=O)CC1CN(c2ccc(C(F)(F)F)c(-c3n[nH]c4ncccc34)n2)CCN1 (stereo not drawn) [Compound 211]
> 6.30 | < 5.90 | < 5.90 | NC(=O)CC1CN(c2ccc(C(F)(F)F)c(-c3n[nH]c4ncccc34)n2)CCN1 (stereo not drawn) [Compound 209]
< 6.15 | < 5.70 | < 5.90 | CC(C)C[C@H]1CN(c2ccc(C(F)(F)F)c(-c3n[nH]c4ncccc34)n2)CC[C@@H]1O [Compound 90]
> 6.30 | < 5.70 | < 5.90 | CC(C)(O)C1CN(c2ccc(C(F)(F)F)c(-c3n[nH]c4ncccc34)n2)CCN1 (stereo not drawn) [Compound 87]
> 7.30 | > 5.55 | > 5.55 | CC(C)=CC1CN(c2ccc(C(F)(F)F)c(-c3n[nH]c4ncccc34)n2)CCN1 (stereo not drawn) [Compound 104]
> 6.30 | < 5.90 | < 5.90 | CC(C)C(F)(F)C1CN(c2ccc(C(F)(F)F)c(-c3n[nH]c4ncccc34)n2)CCN1 (stereo not drawn) [Compound 150]
< 6.15 | < 5.90 | < 5.90 | CC(C)C[C@H]1CN(c2ccc(F)c(-c3n[nH]c4ncccc34)n2)C[C@H](C)N1 [Compound 182]
> 7.30 | > 6.30 | > 5.55 | CC(C)CC1CN(c2ccc(F)c(-c3n[nH]c4ncccc34)n2)CCC1CN (stereo not drawn) [Compound 386]
< 6.15 | < 5.90 | < 5.90 | NC(=O)C1CN(c2ccc(C(F)(F)F)c(-c3n[nH]c4ncccc34)n2)CCN1 (stereo not drawn) [Compound 213]
